The values that follow come from patent US20160266153A1, “I[…] PREGABALIN” (Randox Laboratories Limited, priority 2015, published 2016).

Structures are written as SMILES. Values after ≈ are worked out from the molar mass of the structure shown. Where only a bound is given, the exact number is not on record here.

Data set [1] deals with antibody RS2845 (raised against Immunogen II). In words: Competitive ELISA: HRP tracer (Tracer 1) versus pregabalin or potential cross-reactants for binding sites of polyclonal antibody RS2845. As to conditions: for % Cross-Reactivity: % CR = IC50 pregabalin/IC50 CR x 100, cross-reactants assessed at 5 μg/ml, (S) pregabalin as calibrator; for IC50 (standard concentration which produces 50% B/B0): antibody RS2845 coated at 5 μg/ml, Tracer 1, (S) enantiomer of pregabalin as calibrator. As for the experimental part: The antibody titre is evaluated by coating a microtitre plate (Thermo Fisher Scientific NUNC, 468667) with antibody (125 μl/well) in coating buffer (10 mM Tris pH 8.5) at 37° C. for 2 hours. The plate is then washed 4 times over 10 minutes with working strength mixture of Tris-Buffered Saline and Tween 20 (TBST). 50 μl of sample/standard (pregabalin) is added to the appropriate wells in triplicate, followed by 75 μl of hapten-HRP conjugate and incubated at 25° C. for 1 hour. The plate is then washed and 125 μl of TMB (Randox Laboratories, 4380-15) added to each well and left at room temperature for 20 mins in the dark. The reaction is stopped using 125 μl of 0.2 M sulphuric acid. The absorbances are read at 450 nm with an ELISA microplate reader (BIO-TEK Instruments, Elx800) and the means calculated. Antibody sensitivity can then be determined.
IgG was extracted from serum from the immunized animal the using ammonium sulphate/caprylic acid precipitation and the purified antibody was immobilised on a 96 well ELISA plate at 5 μg/ml in 10 mM TRIS buffer, pH 8.5 overnight at 4° C. The assay was based on competition for binding sites of a polyclonal antibody between HRP tracer and pregabalin or potential cross-reactants. The plate was washed (×3) with TBST and the calibrator (pregabalin) or potential cross reactants added (50 μl per well), followed by HRP tracer (75 μl/well) to the appropriate wells. The plates were then incubated for 60 minutes at 25° C. They were then subjected to 2 quick wash cycles using TBST, followed by 4×2 minute wash cycles. 125 μL of signal 25 (TMB) was then added to each well for 20 mins at room temperature in the dark. The reaction was stopped by the addition of 125 μl of 0.2 M Sulphuric Acid per well and the plates read immediately at 450 nm. Calibration curves were generated and these were used to determine the sensitivity and specificity of the immunoassay for pregabalin and potential cross-reactants. The data was inputted to a computer program called ‘KC Junior’ (Biotek). […] This program is used to calculate the IC50 values by dividing the 0 ng/ml optical density (OD) value by 2 and obtaining the concentration value from the curve for this OD.
wherein % CR is the percentage cross-reactivity, IC50 pregabalin is the concentration of pregabalin which causes 50% displacement of signal and IC50 CR is the concentration of potential cross-reactant that causes 50% displacement of signal.
The antibody (RS2845) used to generate the data in the tables below was raised from Immunogen II (Example 9) and the HRP tracer was prepared as in Example 10 (Tracer 1).
In general terms: An ELISA detects its analyte on a solid surface through an enzyme-linked reagent.

For data set [2] the following is noted: in vivo; cited from earlier work.

For the compound `CCCC(CCC)C(=O)O` [Valproic acid], in data set [1], the “% Cross-Reactivity” value was below 1%.

With `CC(C)(C)C(O)/C=C/c1ccc2c(c1)OCO2` (centres unmarked) [Stiripentol], the “% Cross-Reactivity” value in data set [1] is listed as below 1%.

In the case of `NCCc1c[nH]c2ccc(O)cc12` [Serotonin], the “% Cross-Reactivity” value in data set [1] was below 1%.

On to `CNC[C@H](CC(=O)O)CC(C)C` [N-methylpregabalin, N-methyl pregabalin], for which, in data set [1], the “% Cross-Reactivity” value is below 1%.

As for `C=CC(N)CCC(=O)O` (centres unmarked) [Vigabatrin], in data set [1], the “% Cross-Reactivity” value was below 1%.

For `NCCCC(=O)O` [Gamma-aminobutyric acid], in data set [1], the “% Cross-Reactivity” value is given as below 1%.

Turning to `Cc1ccsc1C(=CCCN1CCC[C@@H](C(=O)O)C1)c1sccc1C` [Tiagabine], in data set [1], the “% Cross-Reactivity” value is below 1%.

Consider `CCC(C)CC(C)N` (centres unmarked) [1,3-dimethylamylamine (DMAA), 1,3-dimethylamylamine], for which the “% Cross-Reactivity” value in data set [1] is given as 2.2%.

For the compound `NC(=O)OCC(COC(N)=O)c1ccccc1` [Felbamate], the “% Cross-Reactivity” value in data set [1] was below 1%.

Regarding `CC1(C)O[C@@H]2[C@@H](CO[C@@]3(COS(N)(=O)=O)OC(C)(C)O[C@@H]23)O1` [Topiramate], the “% Cross-Reactivity” value in data set [1] was below 1%.

As to `CC(C)CC(CN)CC(=O)O` (centres unmarked) [Pregabalin, 3-(aminomethyl)-5-methylhexanoic acid], the “Dose excreted unchanged in the urine” value in data set [2] is recorded as “about 98%”. The Metabolism result in data set [2] is on record as “negligible metabolism”. The “% Cross-Reactivity” value in data set [1] is listed as 100%. Moreover, the “IC50 (standard concentration which produces 50% B/B0)” value in data set [1] is 0.266 ng/mL (≈ 1.67 nM); in data set [1] (listed as pregabalin), “about 0.266 ng/ml”. For the same compound, the B/B0 in data set [1] (pregabalin 0.02 ng/ml) is reported as 76%; in data set [1] (pregabalin 0.08 ng/ml), 52%; in data set [1] (pregabalin 0.31 ng/ml), 28%; in data set [1] (pregabalin 1.25 ng/ml), 14%; in data set [1] (pregabalin 5.00 ng/ml), 7%.

Take `N[C@H](CCC(=O)O)C(=O)O` [D-Glutamic Acid]: the “% Cross-Reactivity” value in data set [1] is recorded as below 1%.

With `COC[C@@H](NC(C)=O)C(=O)NCc1ccccc1` [Lacosamide], the “% Cross-Reactivity” value in data set [1] is below 1%.

For the compound `N[C@@H](CCC(=O)O)C(=O)O` [L-Glutamic Acid], the “% Cross-Reactivity” value in data set [1] is below 1%.

For the compound `NC(=O)N1c2ccccc2C=Cc2ccccc21` [Carbamazepine], the “% Cross-Reactivity” value in data set [1] was below 1%.

For the compound `NCC1(CC(=O)O)CCCCC1` [Gabapentin], in data set [1], the “% Cross-Reactivity” value is on record as below 1%.

In the case of `CC[C@@H](C(N)=O)N1CCCC1=O` [Levetiracetam], in data set [1], the “% Cross-Reactivity” value is on record as below 1%.
